Experiment: On day 0 cells were seeded in 30 μL media into each well of 384-well cell culture plates. The seeding density was 8000 cells/well. On day 1, cells were treated with 30 nL DMSO or 30 nL of 3-fold serially DMSO-diluted compounds (10 points in duplicates with 1 μM as final top dose). Subsequently plates were incubated for 6 hours in a standard tissue culture incubator and equilibrated at room temperature for 15 minutes. Nanoluciferase activity was measured by adding 15 μL of freshly prepared Nano-Glo Luciferase Assay Reagent (Promega N1130), shaking the plates for 10 minutes and reading the bioluminescence using an EnVision reader.
Format: cell-based

Row | Compound | IC50
1 | COc1cc(-c2cn(C)c(=O)c3cnccc23)cc(OC)c1CN(C)Cc1cn(CCCCCOc2ccc3c(c2)C(=O)N(C2CCC(=O)NC2=O)C3=O)nn1 (stereo not drawn) | in the range around 55 nM
2 | COc1cc(-c2cn(C)c(=O)c3cnccc23)cc(OC)c1CN1CCCC(OCc2cn(CCCCCOc3ccc4c(c3)C(=O)N(C3CCC(=O)NC3=O)C4=O)nn2)C1 (stereo not drawn) | < 10 nM
3 | COc1cc(-c2cn(C)c(=O)c3cnccc23)cc(OC)c1CN1CC(S(=O)(=O)NCCCCCNc2ccc3c(c2)C(=O)N(C2CCC(=O)NC2=O)C3=O)C1 (stereo not drawn) | < 10 nM
4 | COc1cc(-c2cn(C)c(=O)c3cnccc23)cc(OC)c1CN1CCC(OCc2cn(CCOc3ccc4c(c3)C(=O)N(C3CCC(=O)NC3=O)C4=O)nn2)C1 (stereo not drawn) | in the range around 55 nM
5 | COc1cc(-c2cn(C)c(=O)c3cnccc23)cc(OC)c1CN(C)CC1CC2(C1)CN(C(=O)CCOCCOc1cccc3c1C(=O)N(C1CCC(=O)NC1=O)C3=O)C2 (stereo not drawn) | in the range around 55 nM
6 | COc1cc(-c2cn(C)c(=O)c3cnccc23)cc(OC)c1CN(C)CC1CC2(C1)CN(C(=O)CCOCCOc1ccc3c(c1)C(=O)N(C1CCC(=O)NC1=O)C3=O)C2 (stereo not drawn) | in the range around 550 nM
7 | COc1cc(-c2cn(C)c(=O)c3cnccc23)cc(OC)c1CN1CC2(C1)CN(C(=O)CCCOc1cccc3c1C(=O)N(C1CCC(=O)NC1=O)C3=O)C2 (stereo not drawn) | in the range around 55 nM
8 | COc1cc(-c2cn(C)c(=O)c3cnccc23)cc(OC)c1ON1CC2(CC(NC(=O)CCOCCOc3ccc4c(c3)C(=O)N(C3CCC(=O)NC3=O)C4=O)C2)C1 (stereo not drawn) | in the range around 550 nM
9 | COc1cc(-c2cn(C)c(=O)c3cnccc23)cc(OC)c1CN(C)CCc1cn(CCCOc2ccc3c(c2)C(=O)N(C2CCC(=O)NC2=O)C3O)nn1 (stereo not drawn) | in the range around 550 nM
10 | COc1cc(-c2cn(C)c(=O)c3cnccc23)cc(OC)c1CN1CCC2(CCN(C(=O)CCOCCOc3ccc4c(c3)C(=O)N(C3CCC(=O)NC3=O)C4=O)C2)C1 (stereo not drawn) | in the range around 55 nM
11 | COc1cc(-c2cn(C)c(=O)c3cnccc23)cc(OC)c1CN(C)C1CCC12CCN(C(=O)CCOCCOc1ccc3c(c1)C(=O)N(C1CCC(=O)NC1=O)C3=O)CC2 (stereo not drawn) | < 10 nM
12 | COc1cc(-c2cn(C)c(=O)c3cnccc23)cc(OC)c1CN1CC(C(=O)N2CCC(C3CCN(C(=O)COc4cccc5c4C(=O)N(C4CCC(=O)NC4=O)C5=O)CC3)CC2)C1 (stereo not drawn) | < 10 nM
13 | COc1cc(-c2cn(C)c(=O)c3cnccc23)cc(OC)c1CN1CC(S(=O)(=O)NCCOCCOCCNc2cccc3c2C(=O)N(C2CCC(=O)NC2=O)C3=O)C1 (stereo not drawn) | < 10 nM
14 | COc1cc(-c2cn(C)c(=O)c3cnccc23)cc(OC)c1CN1CCC12CCN(C(=O)CCOCCOc1cccc3c1C(=O)N(C1CCC(=O)NC1=O)C3=O)C2 (stereo not drawn) | in the range around 550 nM
15 | COc1cc(-c2cn(C)c(=O)c3cnccc23)cc(OC)c1CN1CCC(C2CCN(C(=O)CCOCCOc3cccc4c3C(=O)N(C3CCC(=O)NC3=O)C4=O)C2)CC1 (stereo not drawn) | in the range around 55 nM
16 | COc1cc(-c2cn(C)c(=O)c3cnccc23)cc(OC)c1CN1CCC(OCc2cn(CCCOc3ccc4c(c3)C(=O)N(C3CCC(=O)NC3=O)C4=O)nn2)C1 (stereo not drawn) | in the range around 550 nM
17 | COc1cc(-c2cn(C)c(=O)c3cnccc23)cc(OC)c1CN(C)C1CC2CN(C(=O)CCOCCOc3cccc4c3C(=O)N(C3CCC(=O)NC3=O)C4=O)CC2C1 (stereo not drawn) | in the range around 55 nM
18 | COc1cc(-c2cn(C)c(=O)c3cnccc23)cc(OC)c1CN(C)CC1CC2(CCN(C(=O)CCOCCOc3ccc4c(c3)C(=O)N(C3CCC(=O)NC3=O)C4=O)CC2)C1 (stereo not drawn) | in the range around 55 nM
19 | COc1cc(-c2cn(C)c(=O)c3cnccc23)cc(OC)c1CN1CC2(CCN(C(=O)CCOCCOc3cccc4c3C(=O)N(C3CCC(=O)NC3=O)C4=O)CC2)C1 (stereo not drawn) | in the range around 550 nM
20 | COc1cc(-c2cn(C)c(=O)c3cnccc23)cc(OC)c1CN1CCC2(CC1)CN(C(=O)CCOCCOc1cccc3c1C(=O)N(C1CCC(=O)NC1=O)C3=O)C2 (stereo not drawn) | in the range around 55 nM
21 | COc1cc(-c2cn(C)c(=O)c3cnccc23)cc(OC)c1CN1CC(C)(C(=O)NCCCCCCCCNc2cccc3c2C(=O)N(C2CCC(=O)NC2=O)C3=O)C1 (stereo not drawn) | < 10 nM
22 | COc1cc(-c2cn(C)c(=O)c3cnccc23)cc(OC)c1CN(C)CCCOCCN1CCN(c2ccc3c(c2)C(=O)N(C2CCC(=O)NC2=O)C3=O)CC1 (stereo not drawn) | in the range around 55 nM
23 | COc1cc(-c2cn(C)c(=O)c3cnccc23)cc(OC)c1CN(C)CCc1cn(CCCCCOc2ccc3c(c2)C(=O)N(C2CCC(=O)NC2=O)C3=O)nn1 (stereo not drawn) | < 10 nM
24 | COc1cc(-c2cn(C)c(=O)c3cnccc23)cc(OC)c1CN1CC[C@H]1C(=O)NCCN(C)CCNC(=O)COc1ccc2c(c1)C(=O)N(C1CCC(=O)NC1=O)C2=O (stereo partly drawn) | > 1000 nM

Row | Compound | IC50
25 | COc1cc(-c2cn(C)c(=O)c3cnccc23)cc(OC)c1CN1CCC(OCc2cn(-c3ccc4c(c3)C(=O)N(C3CCC(=O)NC3=O)C4=O)nn2)CC1 (stereo not drawn) | in the range around 55 nM
26 | COc1cc(-c2cn(C)c(=O)c3cnccc23)cc(OC)c1CN1CC[C@H]1C(=O)NCCN(C)CCNc1cccc2c1C(=O)N(C1CCC(=O)NC1=O)C2=O (stereo partly drawn) | in the range around 550 nM
27 | COc1cc(-c2cn(C)c(=O)c3cnccc23)cc(OC)c1CN(C)C1CCC2CN(C(=O)CCOCCOc3ccc4c(c3)C(=O)N(C3CCC(=O)NC3=O)C4=O)CC21 (stereo not drawn) | < 10 nM
28 | COc1cc(-c2cn(C)c(=O)c3cnccc23)cc(OC)c1CN(C)Cc1cn(CCCOc2ccc3c(c2)C(=O)N(C2CCC(=O)NC2=O)C3=O)nn1 (stereo not drawn) | in the range around 550 nM
29 | COc1cc(-c2cn(C)c(=O)c3cnccc23)cc(OC)c1CN(C)CC1CC2(CCN(C(=O)CCOCCOc3cccc4c3C(=O)N(C3CCC(=O)NC3=O)C4=O)CC2)C1 (stereo not drawn) | in the range around 55 nM
30 | COc1cc(-c2cn(C)c(=O)c3cnccc23)cc(OC)c1CN1CCN(C(=O)COc2cccc3c2C(=O)N(C2CCC(=O)NC2=O)C3=O)CC1 (stereo not drawn) | < 10 nM
31 | COc1cc(-c2cn(C)c(=O)c3cnccc23)cc(OC)c1CN1CC(OCc2cn(-c3ccc4c(c3)C(=O)N(C3CCC(=O)NC3=O)C4=O)nn2)C1 (stereo not drawn) | in the range around 55 nM
32 | COc1cc(-c2cn(C)c(=O)c3cnccc23)cc(OC)c1CN(C)C1CC2CN(C(=O)CCOCCOc3ccc4c(c3)C(=O)N(C3CCC(=O)NC3=O)C4=O)CC2C1 (stereo not drawn) | in the range around 55 nM
33 | COc1cc(-c2cn(C)c(=O)c3cnccc23)cc(OC)c1CN(C)CCCN1CCC(Oc2ccc3c(c2)C(=O)N(C2CCC(=O)NC2=O)C3=O)CC1 (stereo not drawn) | < 10 nM
34 | COc1cc(-c2cn(C)c(=O)c3cnccc23)cc(OC)c1CN1CC(C(=O)N(C)CCCCCCCCNc2cccc3c2C(=O)N(C2CCC(=O)NC2=O)C3=O)C1 (stereo not drawn) | < 10 nM
35 | COc1cc(-c2cn(C)c(=O)c3cnccc23)cc(OC)c1CN1CCCC(OCc2cn(-c3ccc4c(c3)C(=O)N(C3CCC(=O)NC3=O)C4=O)nn2)C1 (stereo not drawn) | in the range around 550 nM
36 | COc1cc(-c2cn(C)c(=O)c3cnccc23)cc(OC)c1CN(C)CC(=O)N1CCC(C2CCN(C(=O)COc3cccc4c3C(=O)N(C3CCC(=O)NC3=O)C4=O)CC2)CC1 (stereo not drawn) | in the range around 55 nM
37 | COc1cc(-c2cn(C)c(=O)c3cnccc23)cc(OC)c1CN(C)CCc1cn(CCOCCOc2ccc3c(c2)C(=O)N(C2CCC(=O)NC2=O)C3=O)nn1 (stereo not drawn) | in the range around 55 nM
38 | COc1cc(-c2cn(C)c(=O)c3cnccc23)cc(OC)c1CN1CC(C(=O)NCCCCCCCCNC(=O)COc2cccc3c2C(=O)N(C2CCC(=O)NC2=O)C3=O)C1 (stereo not drawn) | in the range around 55 nM
39 | COc1cc(-c2cn(C)c(=O)c3cnccc23)cc(OC)c1CN(C)CC12CC(C(=O)NCCCCCNc3cccc4c3C(=O)N(C3CCC(=O)NC3=O)C4=O)(C1)C2 (stereo not drawn) | < 10 nM
40 | COc1cc(-c2cn(C)c(=O)c3cnccc23)cc(OC)c1CN1CC(S(=O)(=O)NCCCCCCCCNc2cccc3c2C(=O)N(C2CCC(=O)NC2=O)C3=O)C1 (stereo not drawn) | < 10 nM
41 | COc1cc(-c2cn(C)c(=O)c3cnccc23)cc(OC)c1CN(C)Cc1cn(CCOCCOc2ccc3c(c2)C(=O)N(C2CCC(=O)NC2=O)C3=O)nn1 (stereo not drawn) | in the range around 550 nM
42 | COc1cc(-c2cn(C)c(=O)c3cnccc23)cc(OC)c1CN1CC2(CCC2NC(=O)CCOCCOc2cccc3c2C(=O)N(C2CCC(=O)NC2=O)C3=O)C1 (stereo not drawn) | > 1000 nM
43 | COc1cc(-c2cn(C)c(=O)c3cnccc23)cc(OC)c1CN(C)CC(=O)NCCCCN1CCOC2(CCN(c3ccc4c(c3)C(=O)N(C3CCC(=O)NC3=O)C4=O)CC2)C1 (stereo not drawn) | < 10 nM
44 | COc1cc(-c2cn(C)c(=O)c3cnccc23)cc(OC)c1CN1CCC12CN(C(=O)CCOCCOc1ccc3c(c1)C(=O)N(C1CCC(=O)NC1=O)C3=O)C2 (stereo not drawn) | in the range around 550 nM
45 | COc1cc(-c2cn(C)c(=O)c3cnccc23)cc(OC)c1CN(C)Cc1cn(CCOc2ccc3c(c2)C(=O)N(C2CCC(=O)NC2=O)C3=O)nn1 (stereo not drawn) | in the range around 550 nM
46 | COc1cc(-c2cn(C)c(=O)c3cnccc23)cc(OC)c1CN1CC2CN(C(=O)CCOCCOc3ccc4c(c3)C(=O)N(C3CCC(=O)NC3=O)C4=O)CCC21 (stereo not drawn) | < 10 nM
47 | COc1cc(-c2cn(C)c(=O)c3cnccc23)cc(OC)c1CN1CC(OCc2cn(CCOc3ccc4c(c3)C(=O)N(C3CCC(=O)NC3=O)C4=O)nn2)C1 (stereo not drawn) | in the range around 55 nM
48 | COc1cc(-c2cn(C)c(=O)c3cnccc23)cc(OC)c1CN1CC(NC(=O)CCCCCOc2cccc3c2C(=O)N(C2CCC(=O)NC2=O)C3=O)C1 (stereo not drawn) | in the range around 55 nM

Reference: ChEMBL document CHEMBL5729561, “Compounds and uses thereof” (2023)
